The target in the assay is T1, recombinant Vps34 (Homo sapiens, UniProt Q8NEB9).
T1 construct: purchased Invitrogen PV5126
The assay is described as follows: Phosphorylation of phosphatidylinositol (PI) by Vps34 in vitro, ADP detected by TR-FRET (HTRF Transcreener ADP). The format is biochemical. Conditions: 10 μM ATP, 55 μg/ml PI, approximately 3 nM Vps34, 1 hour at ambient temperature; absolute IC50, mean of two independent experiments; read-out: IC50 activity range.

Each structure is given as a SMILES string. Bounds are passed on as bounds.

T1 sequence (Q8NEB9 whole entry): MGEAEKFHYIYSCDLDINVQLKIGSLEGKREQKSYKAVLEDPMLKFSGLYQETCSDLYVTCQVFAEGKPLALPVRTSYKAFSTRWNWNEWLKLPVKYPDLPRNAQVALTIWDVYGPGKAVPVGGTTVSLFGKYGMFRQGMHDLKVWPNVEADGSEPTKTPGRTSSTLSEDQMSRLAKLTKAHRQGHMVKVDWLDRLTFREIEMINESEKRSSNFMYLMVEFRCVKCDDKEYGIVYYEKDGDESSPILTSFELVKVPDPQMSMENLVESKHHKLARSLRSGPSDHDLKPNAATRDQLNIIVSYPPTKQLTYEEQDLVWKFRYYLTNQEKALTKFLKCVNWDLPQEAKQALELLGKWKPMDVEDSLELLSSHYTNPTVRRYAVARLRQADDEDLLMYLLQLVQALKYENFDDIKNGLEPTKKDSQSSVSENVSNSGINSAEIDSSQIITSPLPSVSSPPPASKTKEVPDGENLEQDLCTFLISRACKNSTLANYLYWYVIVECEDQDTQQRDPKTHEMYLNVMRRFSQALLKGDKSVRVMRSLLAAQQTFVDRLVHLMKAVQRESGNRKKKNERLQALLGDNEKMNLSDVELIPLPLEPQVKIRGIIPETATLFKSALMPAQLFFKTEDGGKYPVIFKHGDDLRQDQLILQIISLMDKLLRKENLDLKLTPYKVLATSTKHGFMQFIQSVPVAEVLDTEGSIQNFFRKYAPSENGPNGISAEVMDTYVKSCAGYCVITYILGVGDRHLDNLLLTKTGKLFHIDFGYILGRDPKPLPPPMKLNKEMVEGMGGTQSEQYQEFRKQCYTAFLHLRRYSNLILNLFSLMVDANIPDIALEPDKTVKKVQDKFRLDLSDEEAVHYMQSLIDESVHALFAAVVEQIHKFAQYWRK

For `C[C@@H]1COCCN1c1nc2n(c(=O)c1F)CC[C@@H](C(F)(F)F)N2c1ccncc1` [Example 55, (S)-3-Fluoro-2-((R)-3-methylmorpholin-4-yl)-9-pyridin-4-yl-8-trifluoromethyl-6,7,8,9-tetrahydro-pyrimido[1,2-a]-pyrimidin-4-one], the IC50 is less than 10 nM. Regarding `C[C@@H]1COCCN1c1cc(=O)n2c(n1)N(Cc1ccn(C(F)F)n1)[C@H](C(F)(F)F)CC2` [Example 32, (S)-9-(1-Difluoromethyl-1H-pyrazol-3-ylmethyl)-2-((R)-3-methyl-morpholin-4-yl)-8-trifluoromethyl-6,7,8,9-tetrahydro-pyrimido[1,2-a]-pyrimidin-4-one], the IC50 is less than 10 nM.

`C[C@@H]1COCCN1c1cc(=O)n2c(n1)N(Cc1ccncc1)[C@H](C(F)(F)F)CC2` [Example 216, (S)-2-((R)-3-Methyl-morpholin-4-yl)-9-pyridin-4-ylmethyl-8-trifluoromethyl-6,7,8,9-tetrahydro-pyrimido[1,2-a]-pyrimidin-4-one]: the IC50 lay within 10 to 100 nM. Consider `CC(C)C(=O)CN1c2nc(N3CC4CCC(C3)O4)cc(=O)n2CC[C@H]1C(F)(F)F` [Example 272, (S)-9-(3-Methyl-2-oxo-butyl)-2-(8-oxa-3-aza-bicyclo[3.2.1]oct-3-yl)-8-trifluoromethyl-6,7,8,9-tetrahydro-pyrimido[1,2-a]-pyrimidin-4-one], for which the IC50 is more than 100 nM. Take `C[C@@H]1COCCN1c1cc(=O)n2c(n1)N(CC(=O)c1cccnc1)CC[C@@H]2C(F)(F)F` [Example 141, (R)-2-((R)-3-Methyl-morpholin-4-yl)-9-(2-oxo-2-pyridin-3-yl-ethyl)-6-trifluoromethyl-6,7,8,9-tetrahydro-pyrimido[1,2-a]-pyrimidin-4-one]: the IC50 is less than 10 nM. To `C[C@@H]1COCCN1c1nc2n(c(=O)c1F)CC[C@@H](C(F)(F)F)N2CC(=O)N1CCCO1` [Example 314, (S)-3-Fluoro-9-(2-isoxazolidin-2-yl-2-oxoethyl)-2-((R)-3-methylmorpholin-4-yl)-8-trifluoromethyl-6,7,8,9-tetrahydro-pyrimido[1,2-a]-pyrimidin-4-one] belongs less than 10 nM; to `C[C@@H]1COCCN1c1nc2n(c(=O)c1F)CC[C@@H](C(F)(F)F)N2c1ccc(C2CC2)nc1` [Example 43, (S)-9-(6-Cyclopropyl-pyridin-3-yl)-3-fluoro-2-((R)-3-methyl-morpholin-4-yl)-8-trifluoromethyl-6,7,8,9-tetrahydro-pyrimido[1,2-a]-pyrimidin-4-one], less than 10 nM; to `C[C@@H]1COC[C@@H](C)N1c1cc(=O)n2c(n1)N(Cc1cnc(Cl)s1)[C@H](C(F)(F)F)CC2` [Example 312, (S)-9-(2-Chloro-thiazol-5-ylmethyl)-2-((3R,5R)-3,5-dimethyl-morpholin-4-yl)-8-trifluoromethyl-6,7,8,9-tetrahydro-pyrimido[1,2-a]-pyrimidin-4-one], 10 to 100 nM.

`C[C@@H]1COCCN1c1cc(=O)n2c(n1)N(Cc1noc(C3CC3)n1)[C@H](C(F)(F)F)CC2` [Example 202, (S)-9-(5-Cyclopropyl-[1,2,4]oxadiazol-3-yl-methyl)-2-((R)-3-methylmorpholin-4-yl)-8-trifluoromethyl-6,7,8,9-tetrahydro-pyrimido[1,2-a]-pyrimidin-4-one]: the IC50 is less than 10 nM. To `CC(=O)CN1c2nc(N3CCOC[C@H]3C)cc(=O)n2CC[C@@]1(C)C(F)(F)F` [Example 327, (S)-8-Methyl-2-((R)-3-methylmorpholin-4-yl)-9-(2-oxopropyl)-8-trifluoromethyl-6,7,8,9-tetrahydropyrimido-[1,2-a]pyrimidin-4-one] belongs less than 10 nM; to `Cc1ccc(S(=O)(=O)N2c3nc(N4CCOC[C@H]4C)cc(=O)n3CC[C@H]2C(F)(F)F)cc1` [Example 104, (S)-2-((R)-3-Methyl-morpholin-4-yl)-9-(toluene-4-sulfonyl)-8-trifluoromethyl-6,7,8,9-tetrahydro-pyrimido[1,2-a]-pyrimidin-4-one], 10 to 100 nM. On to `COc1cc(N2c3nc(N4CCOC[C@H]4C)c(F)c(=O)n3CC[C@H]2C(F)(F)F)ccn1` [Example 40, (S)-3-Fluoro-9-(2-methoxypyridin-4-yl)-2-((R)-3-Methyl-morpholin-4-yl)-8-trifluoromethyl-6,7,8,9-tetrahydro-pyrimido[1,2-a]-pyrimidin-4-one], for which the IC50 is less than 10 nM. To `C[C@@H]1COCCN1c1cc(=O)n2c(n1)N(Cc1ccnc(Cl)c1)CC[C@@H]2C(F)(F)F` [Example 112, (R)-9-(2-Chloro-pyridin-4-ylmethyl)-2-((R)-3-methyl-morpholin-4-yl)-6-trifluoromethyl-6,7,8,9-tetrahydro-pyrimido[1,2-a]-pyrimidin-4-one] belongs less than 10 nM; to `C[C@@H]1COC[C@@H](C)N1c1cc(=O)n2c(n1)N(Cc1ccnn1C(F)F)[C@H](C(F)(F)F)CC2` [Example 154, (S)-9-(2-Difluoromethyl-2H-pyrazol-3-ylmethyl)-2-((3R,5R)-3,5-dimethyl-morpholin-4-yl)-8-trifluoromethyl-6,7,8,9-tetrahydro-pyrimido[1,2-a]-pyrimidin-4-one], less than 10 nM. To `C[C@@H]1COCCN1c1nc2n(c(=O)c1F)CC[C@@H](C(F)(F)F)N2Cc1ccnc(F)c1` [Example 5, (S)-3-Fluoro-9-(2-fluoropyridin-4-yl-methyl)-2-((R)-3-methylmorpholin-4-yl)-8-trifluoromethyl-6,7,8,9-tetrahydro-pyrimido[1,2-a]-pyrimidin-4-one] belongs less than 10 nM; to `CO[C@H](CN1c2nc(N3C[C@H]4CC[C@@H](C3)O4)cc(=O)n2CC[C@H]1C(F)(F)F)c1ccccc1` [Example 206, (S)-9-((S)-2-Methoxy-2-phenylethyl)-2-(1R,5S)-8-oxa-3-aza-bicyclo[3.2.1]oct-3-yl-8-trifluoromethyl-6,7,8,9-tetrahydro-pyrimido[1,2-a]-pyrimidin-4-one], less than 10 nM; to `C[C@@H]1COCCN1c1nc2n(c(=O)c1F)CC[C@@H](C(F)(F)F)N2Cc1nc(C2CC2)no1` [Example 249, (S)-9-(3-Cyclopropyl-[1,2,4]oxadiazol-5-yl-methyl)-3-fluoro-2-((R)-3-methyl-morpholin-4-yl)-8-trifluoromethyl-6,7,8,9-tetrahydro-pyrimido[1,2-a]-pyrimidin-4-one], less than 10 nM.

Take `C[C@@H]1COCCN1c1cc(=O)n2c(n1)N(Cc1cocn1)CC[C@@H]2C(F)(F)F` [Example 110, (R)-2-((R)-3-Methyl-morpholin-4-yl)-9-oxazol-4-ylmethyl-6-trifluoromethyl-6,7,8,9-tetrahydro-pyrimido[1,2-a]-pyrimidin-4-one]: the 50% inhibitory concentration (IC50) was in the range of 10 to 100 nM.

As for `C[C@@H]1COCCN1c1nc2n(c(=O)c1F)CC[C@@H](C(F)(F)F)N2Cc1cccnc1F` [Example 58, (S)-3-Fluoro-9-(2-fluoropyridin-3-yl-methyl)-2-((R)-3-methylmorpholin-4-yl)-8-trifluoromethyl-6,7,8,9-tetrahydro-pyrimido[1,2-a]-pyrimidin-4-one], the IC50 is less than 10 nM. To `C[C@@H]1COCCN1c1cc(=O)n2c(n1)N(CC(F)C1CC1)[C@H](C(F)(F)F)CC2` (single isomer, unassigned) [Example 325] belongs less than 10 nM; to `C[C@@H]1COCCN1c1nc2n(c(=O)c1F)CC[C@@H](C(F)(F)F)N2Cc1ccnc(Cl)c1` [Example 41, (S)-9-(2-Chloro-pyridin-4-ylmethyl)-3-fluoro-2-((R)-3-methyl-morpholin-4-yl)-8-trifluoromethyl-6,7,8,9-tetrahydro-pyrimido[1,2-a]-pyrimidin-4-one], less than 10 nM; to `C[C@@H]1COCCN1c1nc2n(c(=O)c1F)[C@@H](C(F)(F)F)CCN2CC(=O)C1CC1` [Example 120, (R)-9-(2-Cyclopropyl-2-oxoethyl)-3-fluoro-2-((R)-3-methyl-morpholin-4-yl)-6-trifluoromethyl-6,7,8,9-tetrahydro-pyrimido[1,2-a]-pyrimidin-4-one], less than 10 nM. As to `COCCN1c2nc(N3CCOC[C@H]3C)c(F)c(=O)n2CC[C@H]1C(F)(F)F` [Example 20, (S)-3-Fluoro-9-(2-methoxy-ethyl)-2-((R)-3-methylmorpholin-4-yl)-8-trifluoromethyl-6,7,8,9-tetrahydro-pyrimido[1,2-a]-pyrimidin-4-one], the IC50 is less than 10 nM. To `C[C@@H]1COCCN1c1nc2n(c(=O)c1F)CC[C@@H](C(F)(F)F)N2Cc1noc(C(C)(C)C)n1` [Example 54, (S)-9-(5-tert-Butyl-[1,2,4]oxadiazol-3-yl-methyl)-3-fluoro-2-((R)-3-methyl-morpholin-4-yl)-8-trifluoromethyl-6,7,8,9-tetrahydro-pyrimido[1,2-a]-pyrimidin-4-one] belongs less than 10 nM; to `C[C@@H]1COCCN1c1cc(=O)n2c(n1)N(Cc1ccccn1)[C@H](C(F)(F)F)CC2` [Example 218, (S)-2-((R)-3-Methyl-morpholin-4-yl)-9-pyridin-2-ylmethyl-8-trifluoromethyl-6,7,8,9-tetrahydro-pyrimido[1,2-a]-pyrimidin-4-one], less than 10 nM; to `C[C@@H]1COCCN1c1nc2n(c(=O)c1F)CC[C@@H](C(F)(F)F)N2CC(=O)c1ccccn1` [Example 38, (S)-3-Fluoro-2-((R)-3-methylmorpholin-4-yl)-9-(2-oxo-2-pyridin-2-ylethyl)-8-trifluoromethyl-6,7,8,9-tetrahydro-pyrimido[1,2-a]-pyrimidin-4-one], less than 10 nM.

Take `C[C@@H]1COCCN1c1cc(=O)n2c(n1)N(Cc1cncs1)[C@H](C(F)(F)F)CC2` [Example 87, (S)-2-((R)-3-Methyl-morpholin-4-yl)-9-thiazol-5-ylmethyl-8-trifluoromethyl-6,7,8,9-tetrahydro-pyrimido[1,2-a]-pyrimidin-4-one]: the 50% inhibitory concentration (IC50) was less than 10 nM. For `C[C@@H]1COCCN1c1cc(=O)n2c(n1)N(CC(=O)OC1CCCC1)[C@H](C(F)(F)F)CC2` [Example 243, [(S)-8-((R)-3-Methyl-morpholin-4-yl)-6-oxo-2-trifluoromethyl-3,4-dihydro-2H,6H-pyrimido[1,2-a]-pyrimidin-1-yl]acetic acid cyclopentyl ester], the IC50 is less than 10 nM.

Values taken from US11739100B2, “2,3-dihydro-1h-imidazo{1,2-a}pyrimidin-5-one and this 1,2,3,4-tetrahydropyrimido{1,2-a}pyrimidin-6-one derivatives comprising a substituted morpholine, preparation thereof and pharmaceutical use thereof” (SANOFI, priority 2012, dated 2023).
